Each structure is given as a SMILES string. Converted amounts (≈) assume the structure as drawn.

The source of these data is patent US11072591B2, “Tetrazole compounds and their use in the treatment of tuberculosis” (GLAXOSMITHKLINE INTELLECTUAL PROPERTY DEVELOPMENT LIMITED, priority 2017, dated 2021).

The test system of one assay is M. tuberculosis H37Rv. Description: Mycobacterium tuberculosis H37Rv Inhibition Assay (Whole Cell Assay), MIC. The format is cell-based. Conditions: 144 h, M. tuberculosis H37Rv, Middlebrook 7H9 + ADC, 37° C. six days, resazurin readout, read-out: MIC_H37Rv.
Turning to `C[C@@H](O)CNS(=O)(=O)c1ccc(-c2nnn(Cc3ccc(F)cn3)n2)cc1` [Example 25], the MIC was below 0.1 µM.
On the same count and under the same terms, for `Cc1ccc(Cn2nnc(-c3ccc(S(=O)(=O)NCCO)cc3)n2)nc1` [Example 32] the value was 1 to 5 µM; for `COc1cc(-c2nnn(CC3CCC(F)(F)CC3)n2)ccc1S(=O)(=O)NCC(N)=O` [Example 95, 2-((4-(2-((4,4-difluorocyclohexyl)methyl)-2H-tetrazol-5-yl)-2-methoxyphenyl)sulfonamido)acetamide], 1 to 5 µM.
Still for that read-out and setting: to `COc1ccc(Cn2nnc(-c3ccc(S(=O)(=O)NCCO)cc3)n2)cc1F` [Example 30] belongs below 0.1 µM; to `NC(=O)CNS(=O)(=O)c1ccc(-c2nnn(Cc3ccncc3)n2)cc1` [Example 46, 2-(4-(2-(pyridin-4-ylmethyl)-2H-tetrazol-5-yl)phenylsulfonamido)acetamide], below 0.1 µM; to `COC(=O)CNS(=O)(=O)c1ccc(-c2nnn(Cc3ccncc3)n2)cc1` [Example 44], 5 to 10 µM.
Take `CCc1ccc(Cn2nnc(-c3ccc(S(=O)(=O)NCCO)cc3)n2)cc1` [Example 19]: the MIC lay within 1 to 5 µM.
The same measure, in the same setting: for `O=S(=O)(NCCO)c1ccc(-c2nnn(Cc3ncc(F)cc3F)n2)cc1` [Example 21] the value was 1 to 5 µM; for `C[C@@H](c1ccc(F)cn1)n1nnc(-c2ccc(S(=O)(=O)NCCO)cc2)n1` [Example 111], 1 to 5 µM.
Still for that read-out and setting: to `Cc1cc(S(=O)(=O)NCCO)ccc1-c1nnn(Cc2ccc(F)cn2)n1` [Example 73, 4-(2-((5-fluoropyridin-2-yl)methyl)-2H-tetrazol-5-yl)-N-(2-hydroxyethyl)-3-methylbenzenesulfonamide] belongs below 0.1 µM.
Turning to `COc1cnc(Cn2nnc(-c3ccc(S(=O)(=O)NCC#N)cc3)n2)cn1` [Example 92, N-(cyanomethyl)-4-(2-((5-methoxypyrazin-2-yl)methyl)-2H-tetrazol-5-yl)benzenesulfonamide], the MIC is 1 to 5 µM.
For the molecule `O=S(=O)(NCCO)c1ccc(-c2nnn(Cc3ccc(F)cn3)n2)cc1` [Example 29, 4-(2-((5-fluoropyridin-2-yl)methyl)-2H-tetrazol-5-yl)-N-(2-hydroxyethyl)benzenesulfonamide], the MIC was below 0.1 µM.
Turning to `C[C@H](O)CNS(=O)(=O)c1ccc(-c2nnn(Cc3ccc(F)cc3)n2)cc1` [Example 14], the MIC was 1 to 5 µM.
The same measure, in the same setting: to `O=S(=O)(NCCO)c1ccc(-c2nnn(Cc3ccncc3)n2)cc1` [Example 33] belongs below 0.1 µM; to `O=S(=O)(NCCO)c1ccc(-c2nnn(Cc3ccc(OC(F)(F)F)cc3)n2)cc1` [Example 97], 1 to 5 µM.
Still for that read-out and setting: for `Cc1ccc(Cn2nnc(-c3ccc(S(=O)(=O)NCC(N)=O)cc3)n2)nc1` [Example 40] the value was below 0.1 µM; for `N#CCNS(=O)(=O)c1ccc(-c2cn(Cc3ccncc3)nn2)cc1` [Example 60], below 0.1 µM.
On the same count and under the same terms, for `O=S(=O)(NCCO)c1ccc(-c2nnn(Cc3ccc(F)cn3)n2)c(Cl)c1` [Example 81, 3-chloro-4-(2-((5-fluoropyridin-2-yl)methyl)-2H-tetrazol-5-yl)-N-(2-hydroxyethyl)benzenesulfonamide] the value was below 0.1 µM; for `Cc1ccc(Cn2nnc(-c3ccc(S(=O)(=O)NCCO)cc3)n2)cn1` [Example 101, N-(2-hydroxyethyl)-4-(2-((6-methylpyridin-3-yl)methyl)-2H-tetrazol-5-yl)benzenesulfonamide], below 0.1 µM.
As to `O=S(=O)(NCCO)c1ccc(-c2nnn(Cc3ccc(C(F)F)cc3)n2)cc1` [Example 10], the MIC was below 0.1 µM.
On to `O=S(=O)(NCCO)c1ccc(-c2nnn(Cc3ccncn3)n2)cc1` [Example 2, N-(2-hydroxyethyl)-4-(2-(pyrimidin-4-ylmethyl)-2H-tetrazol-5-yl)benzenesulfonamide], for which the MIC was in the range of 1 to 5 µM.
On the same count and under the same terms, for `CNS(=O)(=O)c1ccc(-c2nnn(Cc3ccncc3)n2)cc1OC` [Example 51, 2-methoxy-N-methyl-4-(2-(pyridin-4-ylmethyl)-2H-tetrazol-5-yl)benzenesulfonamide] the value was 1 to 5 µM; for `COc1cc(-c2nnn(Cc3ccc(F)cc3)n2)ccc1S(=O)(=O)NCCO` [Example 47, 4-(2-(4-fluorobenzyl)-2H-tetrazol-5-yl)-N-(2-hydroxyethyl)-2-methoxybenzenesulfonamide], below 0.1 µM; for `C[C@@H](O)CNS(=O)(=O)c1ccc(-c2cn(Cc3ccc(F)cc3)nn2)cc1` [Example 70, (R)-4-(1-(4-fluorobenzyl)-1H-1,2,3-triazol-4-yl)-N-(2-hydroxypropyl) benzenesulfonamide], below 0.1 µM.
Same read-out and setting: for `Cc1cc(S(=O)(=O)NCCO)ccc1-c1nnn(CC2CCCCO2)n1` (single isomer, unassigned) [Example 74 Isomer 1, N-(2-hydroxyethyl)-3-methyl-4-(2-((tetrahydro-2H-pyran-2-yl)methyl)-2H-tetrazol-5-yl)benzenesulfonamide] the value was 5 to 10 µM; for `O=S(=O)(NCCO)c1ccc(-c2nnn(CC3CCC(F)(F)CC3)n2)cc1` [Example 11], below 0.1 µM.
Same read-out and setting: for `COc1ccc(Cn2nnc(-c3ccc(S(=O)(=O)NCCO)c(OC)c3)n2)nc1` [Example 109, N-(2-hydroxyethyl)-2-methoxy-4-(2-((5-methoxypyridin-2-yl)methyl)-2H-tetrazol-5-yl)benzenesulfonamide] the value was 1 to 5 µM.
Consider `COc1cc(-c2nnn(Cc3ccc(F)cn3)n2)ccc1S(=O)(=O)NCCO` [Example 50, 4-(2-((5-fluoropyridin-2-yl)methyl)-2H-tetrazol-5-yl)-N-(2-hydroxyethyl)-2-methoxybenzenesulfonamide], for which the MIC fell in the range of 1 to 5 µM.
Turning to `COc1cc(-c2nnn(Cc3ccncc3)n2)ccc1S(=O)(=O)NCCO` [Example 48, N-(2-hydroxyethyl)-2-methoxy-4-(2-(pyridin-4-ylmethyl)-2H-tetrazol-5-yl)benzenesulfonamide], the MIC lay within 1 to 5 µM.
Still for that read-out and setting: to `NC(=O)CNS(=O)(=O)c1ccc(-c2nnn(CC3CCC(F)(F)CC3)n2)cc1` [Example 39] belongs below 0.1 µM; to `O=S(=O)(NCCO)c1ccc(-c2nnn(Cc3ccc(F)cn3)n2)cc1F` [Example 75, 2-fluoro-4-(2-((5-fluoropyridin-2-yl)methyl)-2H-tetrazol-5-yl)-N-(2-hydroxyethyl) benzenesulfonamide], below 0.1 µM.

The assay is the same for the next values; noted with them: M. tuberculosis H37Rv whole cell assay, value from repeated testing of the compound, read-out: MIC.
For `C[C@@H](O)CNS(=O)(=O)c1ccc(-c2nnn(Cc3ccc(F)cn3)n2)cc1` [Example 25], the MIC turned out to be 0.6 µM (≈ 0.235 µg/mL).
Same read-out and setting: to `C[C@@H](c1ccc(F)cn1)n1nnc(-c2ccc(S(=O)(=O)NCCO)cc2)n1` [Example 111 (S-isomer), (S)-4-(2-(1-(5-fluoropyridin-2-yl)ethyl)-2H-tetrazol-5-yl)-N-(2-hydroxyethyl)benzenesulfonamide] belongs 0.6 to 1.88 µM (≈ 0.235 to 0.736 µg/mL); to `COc1cc(-c2nnn(Cc3ccc(F)cc3)n2)ccc1S(=O)(=O)NCC(N)=O` [Example 53, 2-(4-(2-(4-fluorobenzyl)-2H-tetrazol-5-yl)-2-methoxyphenylsulfonamido)acetamide], 0.04 µM (≈ 0.0168 µg/mL); to `O=S(=O)(NCCO)c1ccc(-c2nnn(Cc3ccc(F)cn3)n2)cc1` [Example 29, 4-(2-((5-fluoropyridin-2-yl)methyl)-2H-tetrazol-5-yl)-N-(2-hydroxyethyl)benzenesulfonamide], 0.07 to 0.16 µM (≈ 0.0265 to 0.0605 µg/mL).
As for `O=S(=O)(NCCO)c1ccc(-c2nnn(Cc3ccc(F)cn3)n2)cc1F` [Example 75, 2-fluoro-4-(2-((5-fluoropyridin-2-yl)methyl)-2H-tetrazol-5-yl)-N-(2-hydroxyethyl) benzenesulfonamide], the MIC was determined as 0.16 µM (≈ 0.0634 µg/mL).
